Laboratory results: US6528528B2 (Warner-Lambert Company, priority 1997, dated 2003)
Blank lines part the entries; values can stand above or below the molecule they belong to.

Key:
[1] = target: T1, rabbit reticulocyte 15-LO (Oryctolagus cuniculus, UniProt P12530); assay: Rabbit Reticulocyte 15-LO Assay (h15LO); type: biochemical; settings: for IC50: 2U rabbit reticulocyte 15-LO, 174 μM linoleic acid, 15 minutes at 4° C.; for h15LO, value given as bare %: concentration not given; for inhibition at 10 µM: 0.25 h, read-out: h15LO % @ 10 μM
T1 construct: Fifteen-lipoxygenase was obtained from phenylhydrazine-treated rabbits and purified per the method of Rapoport; from tissue; host or cells: reticulocytes of phenylhydrazine-treated rabbits
T1 sequence (P12530 1-663): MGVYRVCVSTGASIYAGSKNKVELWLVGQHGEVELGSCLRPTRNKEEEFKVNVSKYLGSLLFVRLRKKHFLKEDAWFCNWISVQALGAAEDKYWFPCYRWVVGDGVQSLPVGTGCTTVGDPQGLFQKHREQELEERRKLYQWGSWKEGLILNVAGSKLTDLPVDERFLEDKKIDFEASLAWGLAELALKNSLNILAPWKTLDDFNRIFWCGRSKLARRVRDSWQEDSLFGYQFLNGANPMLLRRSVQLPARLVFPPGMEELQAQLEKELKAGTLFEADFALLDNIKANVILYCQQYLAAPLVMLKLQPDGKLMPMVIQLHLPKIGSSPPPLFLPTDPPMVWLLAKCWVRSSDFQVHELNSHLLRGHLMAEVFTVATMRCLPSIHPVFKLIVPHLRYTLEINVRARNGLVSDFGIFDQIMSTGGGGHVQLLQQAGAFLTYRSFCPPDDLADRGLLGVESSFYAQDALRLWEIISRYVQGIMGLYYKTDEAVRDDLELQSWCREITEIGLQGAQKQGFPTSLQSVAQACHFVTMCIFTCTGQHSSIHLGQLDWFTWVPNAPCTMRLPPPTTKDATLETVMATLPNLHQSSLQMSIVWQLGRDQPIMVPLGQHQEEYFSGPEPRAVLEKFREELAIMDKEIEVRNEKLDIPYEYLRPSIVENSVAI
Procedure, shortened: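 Purified rabbit reticulocyte 15-LO (2U) incubated with inhibitor and 174 μM linoleic acid in PBS with 0.2% Na cholate for 15 minutes at 4° C. 13-HPODE quantified by peak area against 13-HODE standard curve; % inhibition relative to uninhibited reaction.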

Structure (SMILES): CCOc1ccc(C(=O)Nc2ccccc2)cc1NC(=S)Nc1cc(Cl)cc(Cl)c1 [Example 80, 3-[3-(3,5-Dichlorophenyl)-thioureido]-4-ethoxy-N-phenyl-benzamide]
- IC50 ([1]; Table 2): 39 nM
- melting point: 201 to 202 °C

Structure (SMILES): COC(=O)c1cccc(NC(=O)c2ccc(OC)c(N)c2)c1 [Example 149, 3-(3-Amino-4-methoxy-benzoylamino)-benzoic Acid Methyl Ester]
- IC50 ([1]; Table 2): 330 nM
- melting point: 160 to 162 °C

Structure (SMILES): COc1ccc(C(=O)Nc2ccccc2)cc1NS(=O)(=O)c1cc(Cl)sc1Cl [Example 132, 3-(2,5-Dichlorothiophene-3-sulfonylamino)-4-methoxy-N-phenyl-benzamide]
- IC50 ([1]; Table 2): 115 nM
- melting point: 189 to 190 °C

Structure (SMILES): CSc1ccc(C(=O)Nc2ccccc2)cc1NC(=S)Nc1cc(Cl)cc(Cl)c1 [Example 106, 3-[3-(3,5-Dichlorophenyl)-thioureido]-4-methylsulfanyl-N-phenyl-benzamide]
- IC50 ([1]; Table 2): 11 nM
- melting point: 172 to 175 °C

Structure (SMILES): COc1ccc(C(=O)Nc2cccc(Cl)c2)cc1N [Example 16, 3-Amino-4-methoxy-N-(3-chlorophenyl)-benzamide]
- IC50 ([1]; Table 1): 79 nM
- melting point: 144 to 146 °C

Structure (SMILES): COc1ccc(S(=O)(=O)Nc2ccccc2)cc1NC(=S)Nc1cc(Cl)cc(Cl)c1 [Example 109, 3-[3-(3,5-Dichlorophenyl)-thioureido]-4-methoxy-N-phenyl-benzenesulfonamide]
- inhibition at 10 µM ([1]; Table 2): 26%
- melting point: 163 to 165 °C

Structure (SMILES): COc1ccc(C(=O)Nc2ccccc2)cc1NS(=O)(=O)c1cc(Br)c(Br)s1 [Example 126, 3-(4,5-Dibromothiophene-2-sulfonylamino)-4-methoxy-N-phenyl-benzamide]
- IC50 ([1]; Table 2): 48 nM
- melting point: 205 to 210 °C

Structure (SMILES): COc1ccc(C(=S)Nc2ccccc2)cc1NS(=O)(=O)c1cc(Cl)cc(Cl)c1 [Example 208, 3-(3,5-Dichloro-benzenesulfonylamino)-4-methoxy-N-phenyl-thiobenzamide]
- h15LO, value given as bare % ([1]; Table 2): 98.52%
- melting point: 206 to 208 °C

Structure (SMILES): COc1ccc(C(=O)Nc2ccc(C)cc2)cc1NC(=S)Nc1cc(Cl)cc(Cl)c1 [Example 94, 3-[3-(3,5-Dichlorophenyl)-thioureido]-4-methoxy-N-p-tolyl-benzamide]
- IC50 ([1]; Table 2): 42 nM
- melting point: 178 to 180 °C

Structure (SMILES): COc1ccc(NC(=O)c2ccc(Cl)c(Cl)c2)cc1N [Example 23, 3,4-Dichloro-N-(3-amino-4-methoxyphenyl)-benzamide]
- IC50 ([1]; Table 1): 26 nM
- melting point: 215 to 218 °C

Structure (SMILES): COc1ccc(C(=O)Nc2ccccc2)cc1NC(=S)Nc1cc(C(F)(F)F)cc(C(F)(F)F)c1 [Example 89, 3-[3-(3,5-Bis-trifluoromethylphenyl)-thioureido]-4-methoxy-N-phenyl-benzamide]
- IC50 ([1]; Table 2): 35 nM
- melting point: 192 to 193 °C

Structure (SMILES): O=C(Nc1ccc(F)c(NC(=S)Nc2cccc(C(F)(F)F)c2)c1)c1ccc(Cl)c(Cl)c1 [Example 114, 3,4-Dichloro-N-{4-fluoro-3-[3-(3-trifluoromethylphenyl)-thioureido]-phenyl}-benzamide]
- IC50 ([1]; Table 2): 120 nM
- melting point: 172 to 174 °C

Structure (SMILES): COc1ccc(C(=O)Nc2ccc(Cl)c(Cl)c2)cc1NS(=O)(=O)c1cc(Cl)cc(Cl)c1 [Example 117, 3-(3,5-Dichloro-benzenesulfonylamino)-4-methoxy-N-(3,4-dichlorophenyl)-benzamide]
- melting point: > 230 °C (dec.)

Structure (SMILES): COc1ccc(C(=O)Nc2cc(C)cc(C)c2)cc1NC(=S)Nc1cccc(C)c1 [Example 103, N-(3,5-Dimethylphenyl)-4-methoxy-3-(3-m-tolyl-thioureido)-benzamide]
- melting point: 188 to 189 °C

Structure (SMILES): Nc1cc(NC(=O)c2ccc(Cl)c(Cl)c2)ccc1F [Example 22, 3,4-Dichloro-N-(3-amino-4-fluorophenyl)-benzamide]
- melting point: 151 to 153 °C

Structure (SMILES): Nc1cc(C(=O)Nc2ccccc2)ccc1Cl [Example 13, 3-Amino-4-chloro-N-phenyl-benzamide]
- melting point: 194 to 197 °C

Structure (SMILES): COc1ccc(C(=O)Nc2cccnc2)cc1NC(=S)Nc1ccc(Cl)c(Cl)c1 [Example 100, 3-[3-(3,4-Dichlorophenyl)-thioureido]-4-methoxy-N-pyridin-3-yl-benzamide]
- melting point: 179 to 180 °C

Other lines, results leading:

- IC50 ([1]; Table 2): 79 nM
- melting point: 182 to 183 °C
Structure (SMILES): CCCCS(=O)(=O)Nc1cc(C(=O)Nc2ccccc2)ccc1OC [Example 129, 3-(Butane-1-sulfonylamino)-4-methoxy-N-phenyl-benzamide]

- IC50 ([1]; Table 2): 11 nM
- melting point: 174 to 175 °C
Structure (SMILES): COc1ccc(C(=O)Nc2ccccc2)cc1NC(=S)Nc1ccc(Cl)c([N+](=O)[O-])c1 [Example 77, 3-[3-(4-Chloro-3-nitrophenyl)-thioureido]-4-methoxy-N-phenyl-benzamide]

- IC50 ([1]; Table 2): 2940 nM
- melting point: 132 to 133 °C
Structure (SMILES): O=C(Nc1ccccc1)c1ccc(F)c(Nc2ccccc2)c1 [Example 37, 3-Phenylamino-4-fluoro-N-phenyl-benzamide]

- IC50 ([1]; Table 2): 28 nM
- melting point: 209 to 211 °C
Structure (SMILES): COc1ccc(C(=O)Nc2ccccc2)cc1NS(=O)(=O)c1ccc(F)cc1 [Example 125, 3-(4-Fluoro-benzenesulfonylamino)-4-methoxy-N-phenyl-benzamide]

- h15LO, value given as bare % ([1]; Table 2): 61%
- melting point: 173 to 175 °C
Structure (SMILES): COc1ccc(C(=O)Nc2ccccc2)cc1NC(=O)C(O)c1ccccc1 (stereo not shown) [Example 257, 3-(2-Hydroxy-2-phenyl-acetylamino)-4-methoxy-N-phenyl-benzamide]

- inhibition at 10 µM ([1]; Table 2): 65%
- melting point: 133 to 134 °C
Structure (SMILES): CCc1ccc(C(=O)Nc2ccccc2)cc1Nc1cccc(C(F)(F)F)c1 [Example 41, 4-Ethyl-3-(3-trifluoromethyl-phenylamino)-N-phenyl-benzamide]

- IC50 ([1]; Table 2): 1190 nM
- melting point: 152 to 153 °C
Structure (SMILES): COc1ccc(C(=O)Nc2ccccc2)cc1OC(=O)Oc1ccccc1 [Example 144, 2-Methoxy-5-phenylcarbamoyl-carbonic acid-phenyl ester phenyl ester]

- IC50 ([1]; Table 2): 11 nM
- melting point: 198 to 199 °C
Structure (SMILES): COc1ccc(C(=O)Nc2ccccc2)cc1Nc1cc(C)cc(C)c1 [Example 36, 3-(3,5-Dimethyl-phenylamino)-4-methoxy-N-phenyl-benzamide]

- IC50 ([1]; Table 2): 12 nM
- melting point: 220 to 221 °C
Structure (SMILES): COc1ccc(C(=O)Nc2ccccc2)cc1Nc1cccc([N+](=O)[O-])c1 [Example 33, 3-(3-Nitro-phenylamino)-4-methoxy-N-phenyl-benzamide]

- inhibition at 10 µM ([1]; Table 2): 60%
- melting point: 200 to 201 °C
Structure (SMILES): COc1ccc(C(=O)Nc2ccccc2)cc1Oc1ccccc1 [Example 54, 3-Phenoxy-4-methoxy-N-phenyl-benzamide]

- IC50 ([1]; Table 2): 124 nM
- melting point: > 280 °C
Structure (SMILES): COc1ccc(C(=O)Nc2ccccc2)cc1NC(=S)Nc1ccc(S(=O)(=O)O)cc1 [Example 82, 4-[3-(2-Methoxy-5-phenylcarbamoyl-phenyl)-thioureido]-benzenesulfonic Acid]

- IC50 ([1]; Table 2): 11 nM
- melting point: 168 to 171 °C
Structure (SMILES): COc1ccc(C(=O)Nc2ccccc2)cc1NC(=S)Nc1cccc(C)c1 [Example 95, 4-Methoxy-N-phenyl-3-(3-m-tolyl-thioureido)-benzamide]

- IC50 ([1]; Table 2): 12 nM
- melting point: 180 to 183 °C
Structure (SMILES): COc1ccc(C(=O)Nc2ccccc2)cc1NS(=O)(=O)c1cccs1 [Example 142, 3-(Thiophene-2-sulfonylamino)-4-methoxy-N-phenyl-benzamide]

- IC50 ([1]; Table 2): 25 nM
- melting point: 231 to 232 °C
Structure (SMILES): COc1ccc(C(=O)Nc2ccccc2)cc1NS(=O)(=O)c1cccc2c(N(C)C)cccc12 [Example 143, 3-(5-Dimethylaminonaphthalene-1-sulfonylamino)-4-methoxy-N-phenyl-benzamide]

- IC50 ([1]; Table 2): 390 nM
- melting point: 182 to 183 °C
Structure (SMILES): COc1ccc(C(=O)Nc2ccccc2)cc1NC(=S)Nc1ccc(F)cc1 [Example 78, 3-[3-(4-Fluorophenyl)-thioureido]-4-methoxy-N-phenyl-benzamide]

- IC50 ([1]; Table 2): 81 nM
- melting point: 168 to 169 °C
Structure (SMILES): COc1ccc(NC(=S)Nc2cc(C(=O)Nc3ccccc3)ccc2OC)cc1 [Example 83, 4-Methoxy-3-[3-(4-methoxy-phenyl)-thioureido]-N-phenyl-benzamide]

- IC50 ([1]; Table 2): 48 nM
- melting point: 176 to 177 °C
Structure (SMILES): COc1ccc(C(=O)Nc2ccccc2)cc1NC(=S)Nc1cccc(C(C)=O)c1 [Example 76, 3-[3-(3-Acetyl-phenyl)-thioureido]-4-methoxy-N-phenyl-benzamide]

- melting point: 209 to 210 °C
Structure (SMILES): COc1ccc(NC(=O)c2ccccc2)cc1Nc1ccccc1 [Example 49, N-[3-(Phenylamino)-4-methoxy-phenyl]-benzamide]
